{
  "source": "patent US20230372481A1",
  "about": "(priority 2020, published 2023)",
  "key": {"[1]": {"tested_on": "PBMCs of COVID-19 convalescent donors", "test": "Proliferation assay with CFSE in the presence of dexamethasone", "type": "cell-based, human", "details": "dexamethasone 10-7-10-6 M", "procedure": "Around 2 million cells where incubated in a P24 plaque in 1 ml of supplemented medium with 1.5% v/v PHA (Phytohemagglutinin M form. Ref. 10576015), Mouse Anti-Human CD3 (Clone OKT3; BD Biosciences, Ref: 566685; final concentration of 0.05 μg/ml) and CD28/CD49d Purified (Clone L293 L25 RUO GMP) (BD Biosciences. Ref. 347690; final concentration 5 μg/ml).\nThe cells where incubated at 37° C. for 3 days and finally a CFSE proliferation assay (CellTrace™ CFSE Cell Proliferation Kit, Invitrogen, Ref.) was performed to determine if high doses of the drug decrease the division index of the cells. The cells were stained with CFSE and the different cell surface antibodies. Then, cell acquisition was performed using a Navios cytometer (Beckman Coulter), acquiring an average of 200,000 cells. The analysis was made using FlowJo 10.7.1 (FlowJoLLC). N=4 mean of the results was performed."}, "[2]": {"tested_on": "PBMCs of COVID-19 convalescent donors", "test": "Secretion of IFNγ in the presence of dexamethasone with peptivators for SARS-COV-2", "type": "cell-based, human", "details": "three SARS-CoV-2 peptides", "procedure": "Then they were mixed with PepTivators for SARS-CoV2 (Miltenyi Biotec. PepTivator Prot_M, Ref. 130-126-702; PepTivator Prot_N, Ref. 130-126-698 & PepTivator Prot_S, Ref. 130-126-700. Final concentration of 0.6 nmol/ml) for 5 hours at 37° C.; then IFNγ production of T cells were measured as before using the Miltenyi Biotec IFNg Detection Kit, Ref: 130-054-202. In all cases there was a basal condition, without peptivators and the cells where previously incubated with mouse Anti-Human CD3 (Clone OKT3; BD Biosciences, Ref:\n566685; final concentration of 2.8 μg/ml and CD28/CD49d Purified (Clone L293 L25 RUO GMP) (BD Biosciences. Ref. 347690; final concentration 5 μg/ml). Cell acquisition was performed using a Navios cytometer (Beckman Coulter), acquiring an average of 200,000 cells. The analysis was made using FlowJo 10.7.1 (FlowJoLLC). N=3, mean of the results was performed."}, "[3]": {"details": "DEX 10^-7M, 72 hours (D3), listed as dexamethasone"}},
  "data": [
    {"smiles": "C[C@@H]1C[C@H]2[C@@H]3CCC4=CC(=O)C=C[C@]4(C)[C@@]3(F)[C@@H](O)C[C@]2(C)[C@@]1(O)C(=O)CO", "note": "[DEX, dexamethasone]", "values": [
      {"measurement": "Reduction of proliferation within the CD45RA− memory T cells", "setting": "[1]", "result": "0-5%"},
      {"measurement": "Percentage of IFNg, CD45RA+", "setting": "[2]; DEX 10^-6M, 24 hours (D1)", "result": 0.00, "unit": "%"},
      {"measurement": "Percentage of IFNg, CD45RA+CD3+", "setting": "[2]; DEX 10^-6M, 24 hours (D1)", "result": 0.00, "unit": "%"},
      {"measurement": "Percentage of IFNg, CD45RA+CD3+CD4+", "setting": "[2]; DEX 10^-6M, 24 hours (D1)", "result": 0.32, "unit": "%"},
      {"measurement": "Percentage of IFNg, CD45RA+CD3+CD8+", "setting": "[2]; DEX 10^-6M, 24 hours (D1)", "result": 0.00, "unit": "%"},
      {"measurement": "Percentage of IFNg, CD45RA−", "setting": "[2]; DEX 10^-6M, 24 hours (D1)", "result": 2.0, "unit": "%"},
      {"measurement": "Percentage of IFNg, CD45RA− CD3+", "setting": "[2]; DEX 10^-6M, 24 hours (D1)", "result": 0.7, "unit": "%"},
      {"measurement": "Percentage of IFNg, CD45RA− CD3+CD4+", "setting": "[2]; DEX 10^-6M, 24 hours (D1)", "result": 1.1, "unit": "%"},
      {"measurement": "Percentage of IFNg, CD45RA− CD3+CD8+", "setting": "[2]; DEX 10^-6M, 24 hours (D1)", "result": 0.1, "unit": "%"},
      {"measurement": "Percentage of IFNg, CD45RA+", "setting": "[2]; DEX 10^-6M, 72 hours (D3)", "result": 0.61, "unit": "%"},
      {"measurement": "Percentage of IFNg, CD45RA+CD3+", "setting": "[2]; DEX 10^-6M, 72 hours (D3)", "result": 1.06, "unit": "%"},
      {"measurement": "Percentage of IFNg, CD45RA+CD3+CD4+", "setting": "[2]; DEX 10^-6M, 72 hours (D3)", "result": 1.43, "unit": "%"},
      {"measurement": "Percentage of IFNg, CD45RA+CD3+CD8+", "setting": "[2]; DEX 10^-6M, 72 hours (D3)", "result": 1.29, "unit": "%"},
      {"measurement": "Percentage of IFNg, CD45RA−", "setting": "[2]; DEX 10^-6M, 72 hours (D3)", "result": 2.68, "unit": "%"},
      {"measurement": "Percentage of IFNg, CD45RA− CD3+", "setting": "[2]; DEX 10^-6M, 72 hours (D3)", "result": 3.27, "unit": "%"},
      {"measurement": "Percentage of IFNg, CD45RA− CD3+CD4+", "setting": "[2]; DEX 10^-6M, 72 hours (D3)", "result": 3.04, "unit": "%"},
      {"measurement": "Percentage of IFNg, CD45RA− CD3+CD8+", "setting": "[2]; DEX 10^-6M, 72 hours (D3)", "result": 4.50, "unit": "%"},
      {"measurement": "Percentage of IFNg, CD45RA+", "setting": "[2]; DEX 10^-7M, 24 hours (D1)", "result": 0.27, "unit": "%"},
      {"measurement": "Percentage of IFNg, CD45RA+CD3+", "setting": "[2]; DEX 10^-7M, 24 hours (D1)", "result": 0.40, "unit": "%"},
      {"measurement": "Percentage of IFNg, CD45RA+CD3+CD4+", "setting": "[2]; DEX 10^-7M, 24 hours (D1)", "result": 0.11, "unit": "%"},
      {"measurement": "Percentage of IFNg, CD45RA+CD3+CD8+", "setting": "[2]; DEX 10^-7M, 24 hours (D1)", "result": 1.77, "unit": "%"},
      {"measurement": "Percentage of IFNg, CD45RA−", "setting": "[2]; DEX 10^-7M, 24 hours (D1)", "result": 5.9, "unit": "%"},
      {"measurement": "Percentage of IFNg, CD45RA− CD3+", "setting": "[2]; DEX 10^-7M, 24 hours (D1)", "result": 1.7, "unit": "%"},
      {"measurement": "Percentage of IFNg, CD45RA− CD3+CD4+", "setting": "[2]; DEX 10^-7M, 24 hours (D1)", "result": 2.4, "unit": "%"},
      {"measurement": "Percentage of IFNg, CD45RA− CD3+CD8+", "setting": "[2]; DEX 10^-7M, 24 hours (D1)", "result": 2.6, "unit": "%"},
      {"measurement": "Percentage of IFNg, CD45RA+", "setting": "[2]; DEX 10^-7M, 72 hours (D3)", "result": 2.08, "unit": "%"},
      {"measurement": "Percentage of IFNg, CD45RA+CD3+", "setting": "[2]; DEX 10^-7M, 72 hours (D3)", "result": 5.12, "unit": "%"},
      {"measurement": "Percentage of IFNg, CD45RA+CD3+CD4+", "setting": "[2]; DEX 10^-7M, 72 hours (D3)", "result": 3.29, "unit": "%"},
      {"measurement": "Percentage of IFNg, CD45RA+CD3+CD8+", "setting": "[2]; DEX 10^-7M, 72 hours (D3)", "result": 3.91, "unit": "%"},
      {"measurement": "Percentage of IFNg, CD45RA−", "setting": "[2]; DEX 10^-7M, 72 hours (D3)", "result": 7.21, "unit": "%"},
      {"measurement": "Percentage of IFNg, CD45RA− CD3+", "setting": "[2]; DEX 10^-7M, 72 hours (D3)", "result": 8.03, "unit": "%"},
      {"measurement": "Percentage of IFNg, CD45RA− CD3+CD4+", "setting": "[2]; DEX 10^-7M, 72 hours (D3)", "result": 7.06, "unit": "%"},
      {"measurement": "Percentage of IFNg, CD45RA− CD3+CD8+", "setting": "[2]; DEX 10^-7M, 72 hours (D3)", "result": 8.67, "unit": "%"},
      {"measurement": "Percentage of IFNg, CD45RA−", "setting": "[2]; [3]", "result": 2.08, "unit": "%"},
      {"measurement": "Percentage of IFNg, CD45RA− CD3+", "setting": "[2]; [3]", "result": 5.12, "unit": "%"},
      {"measurement": "Percentage of IFNg, CD45RA− CD3+CD4+", "setting": "[2]; [3]", "result": 3.29, "unit": "%"},
      {"measurement": "Percentage of IFNg, CD45RA− CD3+CD8+", "setting": "[2]; [3]", "result": 3.91, "unit": "%"}
    ]}
  ]
}
